Laboratory results: the Deep4Chem optical property database

Experiment: solvent given as SMILES

Cc1ccc(Nc2ccc(Nc3ccc(C)cc3)c3c2C(=O)c2ccccc2C3=O)cc1
absorption maximum (in C1CCCCC1): 639 nm
absorption maximum (in C1COCCO1): 638 nm
absorption maximum (in CC(C)=O): 638 nm
absorption maximum (in CCCCCCCCCCO): 644 nm
absorption maximum (in CCCCCCCO): 641 nm
absorption maximum (in CCCCCCO): 642 nm
absorption maximum (in CCCCO): 639 nm
absorption maximum (in CCO): 637 nm
absorption maximum (in CN(C)C=O): 643 nm
absorption maximum (in CO): 636 nm
absorption maximum (in CS(C)=O): 644 nm
absorption maximum (in ClC(Cl)(Cl)Cl): 642 nm
absorption maximum (in c1ccccc1): 642 nm

C(S/C=C/c1ccc(/C=C/SC=C2CCCC2)cc1)=C1CCCC1
absorption maximum (in ClCCl): 350 nm

c1ccc2c3c(ccc2c1)C1(c2cc(-c4ccc5ccc6cccc7ccc4c5c67)ccc2-c2ccc(-c4ccc5ccc6cccc7ccc4c5c67)cc21)c1ccc2ccccc2c1O3
absorption maximum (in ClC(Cl)Cl): 365 nm

COc1ccc(C2=C(c3ccccc3)C(c3ccccc3)=[N+]3C2=Nc2c(-c4ccc(OC)cc4)c(-c4ccccc4)c(-c4ccccc4)n2[B-]3(F)F)cc1
absorption maximum (in Cc1ccccc1): 656 nm

CCN(CC)c1ccc2c(c1)oc(=O)c1c(=O)oc3c(OC)cccc3c12
absorption maximum (in CS(C)=O): 462 nm
absorption maximum (in ClCCl): 458 nm

Cc1c(C)n2c(COC(=O)CNC(=O)OC(C)(C)C)c(C)c(=O)n2c1=O
absorption maximum (in CCO): 374 nm

COc1ccc(N(c2ccc(OC)cc2)c2ccc(-c3ccc(-c4ccc(-c5ccc(-c6ccc(N(c7ccc(OC)cc7)c7ccc(OC)cc7)cc6)s5)c5nsnc45)s3)cc2)cc1
absorption maximum (in ClC(Cl)Cl): 545 nm

CC(C)Oc1ccc(C#Cc2ccc3ccc(=O)oc3c2)cc1
absorption maximum (in CC#N): 310 nm

C(=C1c2ccccc2CCc2ccccc21)c1ccc(-c2ccc(C=C3c4ccccc4CCc4ccccc43)cc2)cc1
absorption maximum (in C1CCOC1): 335 nm

COc1ccc(-c2cc(-c3ccc(C)cc3)nc3c(C#N)c(N4CCCC4)nc(N)c23)cc1
absorption maximum (in CC#N): 418 nm
absorption maximum (in CC(C)=O): 420 nm
absorption maximum (in CC(C)O): 414 nm
absorption maximum (in CO): 414 nm
absorption maximum (in ClC(Cl)Cl): 418 nm
absorption maximum (in ClCCl): 422 nm
absorption maximum (in c1ccccc1): 424 nm

COc1ccc(-c2sc3c(-c4ccc(OC)cc4)c4n(c3c2-c2ccc(OC)cc2)[B-](F)(F)[N+]2=Cc3c(-c5ccc(OC)cc5)c5sc(-c6ccc(OC)cc6)c(-c6ccc(OC)cc6)c5n3[B-](F)(F)[N+]2=C4)cc1
absorption maximum (in CC#N): 587 nm
absorption maximum (in CCCCCC): 595 nm
absorption maximum (in CN(C)C=O): 593 nm
absorption maximum (in Cc1ccccc1): 610 nm
absorption maximum (in ClCCl): 600 nm

N#Cc1c(N2c3ccccc3C(c3ccccc3)(c3ccccc3)c3ccccc32)cccc1N1c2ccccc2C(c2ccccc2)(c2ccccc2)c2ccccc21
absorption maximum (in Cc1ccccc1): 369 nm

c1ccc2c(c1)c1ccccc1n2-c1ccc(-c2ccc(-n3c4ccccc4c4ccccc43)nc2-n2c3ccccc3c3ccccc32)nn1
absorption maximum (in CC#N): 335 nm
absorption maximum (in Cc1ccccc1): 346 nm
absorption maximum (in ClCCl): 337 nm

CC1=CC(C)=[N+]2C1=C(c1c3ccccc3c(C)c3ccccc13)c1c(C)cc(C)n1[B-]2(F)F
absorption maximum (in CC#N): 503 nm
absorption maximum (in CCCCCC): 505 nm
absorption maximum (in CCO): 504 nm
absorption maximum (in CN(C)C=O): 506 nm
absorption maximum (in Cc1ccccc1): 509 nm
absorption maximum (in ClCCl): 506 nm

CC(=O)c1ccn2c3c(c(-c4cc[n+](C)cc4)c2c1)CN(C)C3=O
absorption maximum (in O): 429 nm

COc1ccc(-c2nc(-c3cc([N+](=O)[O-])ccc3O)[nH]c2-c2ccc(OC)cc2)cc1
absorption maximum (in CO): 260 nm

c1ccc(C2=C(c3ccccc3)c3cccc4c3c(cc3nc5ccccc5nc34)O2)cc1
absorption maximum (in ClCCl): 494 nm

CC1CC(C)(C)N(C)c2ccc(/C=C/c3ccc(/C=C(\C#N)C(=O)O)s3)cc21 (configuration not stated)
absorption maximum (in ClCCl): 525 nm

CN(C)c1ccc(/C=C/C(=O)O)cc1
absorption maximum (in C1CCCCC1): 358 nm
absorption maximum (in C1CCOC1): 358 nm
absorption maximum (in C1COCCO1): 356 nm
absorption maximum (in CC#N): 364 nm
absorption maximum (in CCCCO): 356 nm
absorption maximum (in CCCO): 355 nm
absorption maximum (in CCOC(C)=O): 358 nm
absorption maximum (in CO): 357 nm
absorption maximum (in Cc1ccccc1): 362 nm
absorption maximum (in O): 323 nm
absorption maximum (in c1ccccc1): 365 nm

F[B-]1(F)Oc2ccccc2-c2cc(-n3c4ccc(-c5ccccc5)cc4c4cc(-c5ccccc5)ccc43)cc[n+]21
absorption maximum (in Cc1ccccc1): 374 nm

COc1ccc(C2=C/C(=C\c3ccccc3)C(=O)N2)cc1OC
absorption maximum (in C1COCCO1): 431 nm

Cc1c(COC(=O)Cc2cccc3ccccc23)n2c(OCC(=O)Cc3cccc4ccccc34)c(C)c(=O)n2c1=O
absorption maximum (in CCO): 379 nm

c1ccc(C2c3ccc4ccc5ccccc5c4c3-c3c2ccc2ccc4ccccc4c32)cc1
absorption maximum (in ClCCl): 401 nm

CCN1c2ccc(/C=N/Nc3ccccn3)cc2Sc2cc(-c3ccc(C#N)cc3)ccc21
absorption maximum (in C1CCOC1): 383 nm
absorption maximum (in CS(C)=O): 398 nm
absorption maximum (in Cc1ccccc1): 386 nm
absorption maximum (in ClCCl): 388 nm

COc1ccc(N(c2ccc(OC)cc2)c2ccc(-c3ccc(C=C(C#N)C#N)o3)cc2)cc1
absorption maximum (in ClC(Cl)Cl): 524 nm

Cc1ccc(C2=C3C=CC4=[N+]3[B-](F)(F)n3c2ccc3-c2ccc([nH]2)/C(c2ccc(C)cc2)=c2/cc/c(o2)=C(\c2ccc(C)cc2)c2ccc4[nH]2)cc1
absorption maximum (in ClC(Cl)Cl): 703 nm

Cc1c2oc3c(C)c(N)cc(C(=O)NC4OC(=O)C(C(C)C)N(C)C(=O)CN(C)C(=O)C5CCCN5C(=O)C(C(C)C)NC4=O)c3nc-2c(C(=O)NC2OC(=O)C(C(C)C)N(C)C(=O)CN(C)C(=O)C3CCCN3C(=O)C(C(C)C)NC2=O)c(N)c1=O (configuration not stated)
absorption maximum (in C1CCOC1): 524.93 nm
absorption maximum (in CC#N): 516.03 nm
absorption maximum (in CC(=O)O): 521 nm
absorption maximum (in CC(C)=O): 522.69 nm
absorption maximum (in CCCCO): 532.67 nm
absorption maximum (in CCCCOC(C)=O): 524.07 nm
absorption maximum (in CCCO): 533.23 nm
absorption maximum (in CCN(CC)CC): 534.89 nm
absorption maximum (in CCO): 531.93 nm
absorption maximum (in CCOC(C)=O): 522.62 nm
absorption maximum (in CN(C)C=O): 535.18 nm
absorption maximum (in CO): 529.7 nm
absorption maximum (in CS(C)=O): 540.29 nm
absorption maximum (in Cc1ccccc1): 528.44 nm
absorption maximum (in ClC(Cl)Cl): 520.12 nm
absorption maximum (in ClCCCl): 517.19 nm
absorption maximum (in O): 514.17 nm
absorption maximum (in O=[N+]([O-])c1ccccc1): 534 nm
absorption maximum (in c1ccccc1): 522.11 nm
absorption maximum (in c1ccncc1): 541.16 nm

C1=C2C3=C(C4=[N+]2[B-]2(Oc5ccccc54)Oc4ccccc4-c4c5c(c1n42)C1CCC5CC1)C1CCC3CC1 (configuration not stated)
absorption maximum (in ClCCl): 626 nm

CCCCN1\C(=C/C=C/C=C/C2=[N+](CCCC)c3ccc4cc(Br)ccc4c3C2(C)C)C(C)(C)c2c1ccc1cc(Br)ccc21
absorption maximum (in C1CCOC1): 685 nm
absorption maximum (in CC#N): 682 nm
absorption maximum (in CC(C)=O): 685 nm
absorption maximum (in CCO): 688 nm
absorption maximum (in CN(C)C=O): 689 nm
absorption maximum (in CO): 683 nm
absorption maximum (in CS(C)=O): 692 nm
absorption maximum (in ClCCl): 699 nm

c1ccc2[nH]c(-c3ccc(-c4ccc(-c5ccc(-c6nc7ccccc7[nH]6)cc5)cc4)cc3)nc2c1
absorption maximum (in CN(C)C=O): 349 nm

Oc1ccc(C2=N[N+]3=Cc4c(ccc5ccccc45)O[B-]3(c3ccc([B-]45OC(c6ccc(O)cc6)=N[N+]4=Cc4c(ccc6ccccc46)O5)cc3)O2)cc1 (configuration not stated)
absorption maximum (in C1CCOC1): 424 nm

Cc1csc(C)c1C1=C(c2c(C)sc(-c3ccc(-c4nc(-c5ccccc5)c(-c5ccccc5)[nH]4)cc3)c2C)C(F)(F)C(F)(F)C1(F)F
absorption maximum (in C1CCOC1): 339 nm

C(#Cc1c(C#Cc2cccs2)c(C#Cc2cccs2)c(C#Cc2cccs2)c(C#Cc2cccs2)c1C#Cc1cccs1)c1cccs1
absorption maximum (in ClCCl): 371 nm
